From patent US20020111486A1, “Transition metal-cyclopentadienyl-tropane conjugates” (priority 1999, published 2002)

What was measured:
Settings in all cases: mean±SEM; rat striatal and cortical tissues
[1] = molecular target: T1, dopamine transporter (DAT) (Rattus norvegicus, UniProt P23977); experiment: Dopamine transporter binding affinity in rat striatal tissue
T1 construct: from tissue; host or cells: rat striatal tissue
Experimental: (§1) The binding affinities (mean±SEM) of compounds 1a, 1b, 1c, 1d, and 1e for the dopamine transporter (DAT), the serotonin transporter (5-HTT), and norepinephrine (NET) were evaluated in, respectively, rat striatal and cortical tissues according to methods described in Tamagnan et al., Advances in Neurology, Parkinson's Disease. 80: 91-103 (1999). The results are summarized in Table 1 below. β-CIT was run concurrently as a control.

[2] = molecular target: T2, serotonin transporter (5-HTT) (Rattus norvegicus, UniProt P31652); experiment: Serotonin transporter binding affinity in rat tissue
T2 construct: from tissue
T2 sequence (P31652 whole entry): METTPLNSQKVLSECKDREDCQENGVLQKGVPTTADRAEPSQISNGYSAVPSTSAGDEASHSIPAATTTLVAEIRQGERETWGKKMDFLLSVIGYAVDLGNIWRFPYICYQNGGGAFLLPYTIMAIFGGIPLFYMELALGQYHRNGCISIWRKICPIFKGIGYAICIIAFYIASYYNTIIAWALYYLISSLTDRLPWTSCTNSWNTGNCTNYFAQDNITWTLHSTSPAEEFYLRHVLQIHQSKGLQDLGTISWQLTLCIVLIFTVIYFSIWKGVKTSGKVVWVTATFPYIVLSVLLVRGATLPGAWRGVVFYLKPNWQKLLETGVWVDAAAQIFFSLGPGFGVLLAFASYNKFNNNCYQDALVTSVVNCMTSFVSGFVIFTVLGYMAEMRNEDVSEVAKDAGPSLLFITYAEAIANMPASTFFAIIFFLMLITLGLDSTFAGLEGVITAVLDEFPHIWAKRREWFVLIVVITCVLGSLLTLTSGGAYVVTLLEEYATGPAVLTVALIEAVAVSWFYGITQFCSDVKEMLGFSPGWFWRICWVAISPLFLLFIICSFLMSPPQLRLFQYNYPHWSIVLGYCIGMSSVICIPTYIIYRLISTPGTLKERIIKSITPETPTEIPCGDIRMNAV
Experimental: as §1

norepinephrine (NET) = molecular target: T3, norepinephrine (NET) (Rattus norvegicus, UniProt Q63380); experiment: Norepinephrine transporter binding affinity in rat tissue
T3 construct: from tissue
T3 sequence (Q63380 1-617): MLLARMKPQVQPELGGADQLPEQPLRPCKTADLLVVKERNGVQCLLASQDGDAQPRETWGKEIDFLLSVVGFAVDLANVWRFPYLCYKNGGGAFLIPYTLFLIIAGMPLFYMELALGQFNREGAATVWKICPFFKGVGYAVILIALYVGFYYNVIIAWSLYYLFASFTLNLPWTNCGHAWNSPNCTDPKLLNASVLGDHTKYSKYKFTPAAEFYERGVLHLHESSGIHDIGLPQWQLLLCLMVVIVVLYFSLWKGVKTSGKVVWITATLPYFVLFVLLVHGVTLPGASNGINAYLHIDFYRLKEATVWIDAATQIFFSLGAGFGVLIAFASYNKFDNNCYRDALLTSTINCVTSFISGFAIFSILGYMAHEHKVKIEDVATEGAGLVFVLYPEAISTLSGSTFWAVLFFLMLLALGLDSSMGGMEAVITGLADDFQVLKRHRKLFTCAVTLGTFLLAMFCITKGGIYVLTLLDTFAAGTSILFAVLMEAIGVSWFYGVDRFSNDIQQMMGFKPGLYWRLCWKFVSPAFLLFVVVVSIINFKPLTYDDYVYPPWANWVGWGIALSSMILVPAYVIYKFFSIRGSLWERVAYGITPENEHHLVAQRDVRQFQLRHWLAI
Experimental: as §1

T1 sequence (P23977 whole entry): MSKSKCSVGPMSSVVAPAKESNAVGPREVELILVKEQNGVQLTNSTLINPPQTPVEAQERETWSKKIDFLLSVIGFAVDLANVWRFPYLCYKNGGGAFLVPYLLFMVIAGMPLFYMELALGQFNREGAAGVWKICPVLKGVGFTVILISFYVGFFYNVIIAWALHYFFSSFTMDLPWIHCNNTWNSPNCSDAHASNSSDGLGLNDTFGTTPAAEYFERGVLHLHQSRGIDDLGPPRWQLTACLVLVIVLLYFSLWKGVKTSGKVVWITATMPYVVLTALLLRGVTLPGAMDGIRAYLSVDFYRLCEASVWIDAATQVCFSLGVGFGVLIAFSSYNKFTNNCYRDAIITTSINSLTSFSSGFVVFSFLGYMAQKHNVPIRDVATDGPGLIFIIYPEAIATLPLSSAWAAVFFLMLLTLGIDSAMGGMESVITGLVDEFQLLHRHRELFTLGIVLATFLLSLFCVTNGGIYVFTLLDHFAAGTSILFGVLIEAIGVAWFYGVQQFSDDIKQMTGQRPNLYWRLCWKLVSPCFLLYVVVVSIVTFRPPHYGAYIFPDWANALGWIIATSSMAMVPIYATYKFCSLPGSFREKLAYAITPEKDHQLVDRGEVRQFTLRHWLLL

Which results are given for “N-(4-oxo-4-tricarbonylcyclopentadienylrhenio)-2β-hydroxymethyl-3β-(4-chlorophenyl)-nortropane [Compound 1a]”?
Ki [1]: 13 ± 1.8 nM; Ki [2]: 13.3 ± 1 nM; Ki (norepinephrine (NET)): 74 ± 8.2 nM

What does the source list for “8-Methyl-3β-[4 carbonyl -(cyclopentadienyltricarbonyl rhenium)-phenyl]-8-azabicyclo[3.2.1 ]octane-2β-carboxylic acid methyl ester [Compound 1c]”?
Ki [1]: > 10000 nM; Ki [2]: > 10000 nM; Ki (norepinephrine (NET)): > 30000 nM

For “3β-(4-Chlorophenyl)-8-(4-cyclopentadienyltricarbonyl rhenium-butyl)-8-azabicyclo[3.2.1 ]octane-2β-carboxylic acid methyl ester [Compound 1d]”, which Ki [1] is on record?
The Ki was 5.45 ± 0.64 nM.

And the Ki [2]?
The Ki was 1.14 ± 0.16 nM.

And the Ki (norepinephrine (NET))?
Its Ki is 199 ± 30 nM.

How did the Ki [1] turn out when “3-(4-Chlorophenyl)-8-(3-tricarbonylrhenatocyclopentadienyloxy-carbonylpropyl)-8-aza-bicyclo[3.2.1 ]octane-2-carboxylic acid methyl ester [Compound 1b]” was run?
The Ki was 4.18 ± 0.33 nM.

And the Ki [2]?
The Ki was 5.28 ± 0.21 nM.

And the Ki (norepinephrine (NET))?
The Ki was 74 ± 8.2 nM.

Which Ki [1] does the source give for COC(=O)C1C(c2ccc(I)cc2)CC2CCC1N2C (stereo not drawn) [β-CIT, β-Carbomethoxy-3β-(4-iodophenyl) tropane, reference compound] here?
The Ki was 0.96 ± 0.15 nM.

What about the Ki [2] of the same compound?
Its Ki is 0.46 ± 0.06 nM.

What about the Ki (norepinephrine (NET)) of the same compound?
Its Ki is 2.8 ± 0.4 nM.
